# Source: patent US20160355456A1, “PLANT EXTRACTS AND USE THEREOF” (TAKASAGO INTERNATIONAL CORPORATION, priority 2007, published 2016)
# Experiments:
# Type in all cases: biochemical
# [1] = Deodorizing activity test (1) with laccase as polyphenol oxidase; settings: Laccase 1 mg, sample 2 mg, sodium methyl mercaptan 15% aqueous solution 2 μl, room temperature 10 minutes, head space gas detection tube
# Procedure: (§1) Tyrosinase (mfd. by SIGMA, 1 mg) or laccase (mfd. by Amano Enzyme, 1 mg) was added as a polyphenol oxidase to each (2 mg) of 5-CQA (mfd. by Tokyo Chemical Industry), ferulic acid (mfd. by Tokyo Chemical Industry) and ferulylquinic acid and dissolved therein, and then sodium methyl mercaptan (mfd. by Tokyo Chemical Industry, 15% aqueous solution) (2 μl) was added thereto as a malodor substance and sealed therein, followed by stirring at room temperature for 10 minutes. The amount of methyl mercaptan in the head space part was measured using a gas detection tube (GASTEC Corporation, #71H) and the deodorizing ratio was calculated in accordance with the following mathematical expression.
# (§2) In this connection, a system to which each of CQA or FQA (2 mg) and polyphenol oxidase were not added was used as a control plot.
# (§3) Deodorizing ratio (%)=100−(methyl mercaptan concentration of sample plot/methyl mercaptan concentration of control plot)×100
# [2] = Anti-oxidation activity test (DPPH radical elimination ability); settings: Trolox equivalent amount; sample 100 mg/l in 50% v/v ethanol, 1 mM DPPH, 30 minutes, absorbance 520 nm
# Procedure: As the anti-oxidation activity, to what extent it can eliminate DPPH (1,1-diphenyl-2-picrylhydrazyl) (mfd. by Tokyo Chemical Industry) radicals was evaluated by an absorptiometric method (520 nm). Its illustrative method is as the following anti-oxidation activity measuring method.
# Used as the standard of radical elimination ability was Trolox (218940050: mfd. by ACROS ORGANICS) prepared from α-tocopherol which is a typical antioxidant substance by releasing its side chain to provide water-soluble nature. By preparing a calibration curve of Trolox concentration and absorbance (y=−0.2099x+0.4179), anti-oxidation activity of each sample was evaluated by converting it into Trolox equivalent amount. Regarding samples in the table, 5-CQA is manufactured by Tokyo Chemical Industry and ferulic acid is manufactured by Tokyo Chemical Industry.
# 1 mM ethanol solution of DPPH is prepared (39.4 mg/100 ml). After dissolution, DPPH is immediately used in the test (preparation when used).
# By dissolving each sample in 50% v/v ethanol, its 100 mg/l solution is prepared.
# A 4 ml portion of the above-mentioned sample solution and 1 ml of the DPPH solution are added to a test tube, followed by stirring and allowing to stand still for 30 minutes, and then absorbance at a wavelength of 520 nm is measured.
# By applying absorbance of the sample to the calibration curve, Trolox equivalent amount (mol) is calculated.
# [3] = Deodorizing activity test (1) with tyrosinase as polyphenol oxidase; settings: Tyrosinase 1 mg, sample 2 mg, sodium methyl mercaptan 15% aqueous solution 2 μl, room temperature 10 minutes, head space gas detection tube
# Procedure: as §1, §2, §3
Compound,Deodorizing ratio (%) [1] [%],Anti-oxidation activity (T. μmol/μmol) [2] [T. μmol/μmol],Deodorizing ratio (%) [3] [%]
ferulylquinic acid,−18,0.35,−20
"COc1cc(/C=C/C(=O)O)ccc1O [Ferulic acid, ferulic acid]",−18,0.37,−10
"O=C(/C=C/c1ccc(O)c(O)c1)O[C@@H]1C[C@@](O)(C(=O)O)C[C@@H](O)[C@@H]1O [Example 5-CQA, 5-caffeoylquinic acid]",100,1.03,75
